Patent US6436986B1, “Glucocorticoid receptor antagonists for treatment of diabetes” (Abbott Laboratories, priority 1999, dated 2002)

- melting point: 217 to 218 °C
SMILES: COc1cccc2c1-c1cccc(C)c1C(NS(C)(=O)=O)(c1cccc(C(F)(F)F)c1)O2 (stereo not shown) [Example 1, N-[1-methoxy-7-methyl-6-[3-(trifluoromethyl)phenyl]-6H-dibenzo[b,d]pyran-6-yl]methanesulfonamide]
